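Five concentrations, 48 hours, 96-well plates. GI50: concentration for 50% inhibition of growth. TGI denotes the concentration required for complete inhibition of growth.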
Legend:
Assay in all cases: growth of human tumour cells (NCI), 48 h
[1] = test system: NCI-H522 lung
[2] = test system: NCI/ADR-RES ovarian
[3] = test system: NCI-H226 lung
[4] = test system: HL-60(TB) leukemia
[5] = test system: OVCAR-3 ovarian
[6] = test system: A498 renal
[7] = test system: K-562 leukemia
[8] = test system: HOP-92 NSCLC
[9] = test system: SN12C renal
[10] = test system: OVCAR-5 ovarian
[11] = test system: MDA-MB-231 breast
[12] = test system: HT29 colon
[13] = test system: UACC-257 melanoma
[14] = test system: OVCAR-4 ovarian
[15] = test system: MCF7 breast
[16] = test system: CCRF-CEM leukemia
[17] = test system: MDA-MB-435
[18] = test system: SF-268 CNS
[19] = test system: ACHN renal
[20] = test system: SK-MEL-2 melanoma
[21] = test system: 786-0 renal
[22] = test system: SNB-19 CNS
[23] = test system: KM12 colon
[24] = test system: OVCAR-8 ovarian
[25] = test system: COLO 205 colon
[26] = test system: SW-620 colon
[27] = test system: SK-MEL-28 melanoma
[28] = test system: SF-295 CNS
[29] = test system: HCT-15 colon
[30] = test system: PC-3 prostate
[31] = test system: HOP-62 NSCLC
[32] = test system: SK-OV-3 ovarian
[33] = test system: A549 NSCLC
[34] = test system: MALME-3M melanoma
[35] = test system: HCC-2998 colon
[36] = test system: DU-145 prostate
[37] = test system: IGROV1 ovarian
[38] = test system: SK-MEL-5 melanoma
[39] = test system: HS 578T breast
[40] = test system: RXF 393 renal
[41] = test system: BT-549 breast
[42] = test system: EKVX NSCLC
[43] = test system: U251 CNS
[44] = test system: UACC-62 melanoma
[45] = test system: SNB-75 CNS
[46] = test system: RPMI-8226 leukemia
[47] = test system: NCI-H460 lung
[48] = test system: NCI-H23 lung
[49] = test system: CAKI-1 renal
[50] = test system: LOX IMVI melanoma
[51] = test system: SF-539 CNS
[52] = test system: MOLT-4 leukemia
[53] = test system: HCT-116 colon
[54] = test system: UO-31 renal
[55] = test system: M14 melanoma
[56] = test system: T-47D breast
[57] = test system: TK-10 renal

## COC(=O)c1ccc([C@H]2c3[nH]c4ccccc4c3C[C@H](C(=O)OC)N2C(=O)CCl)cc1
[1]
  GI50: 19.7 nM
  TGI: 43.5 nM
[2]
  GI50: 74.4 nM
  TGI: 333 nM
[3]
  GI50: 2210 nM
  TGI: 5940 nM
[4]
  GI50: 113 nM
  TGI: 301 nM
[5]
  GI50: 672 nM
  TGI: 2120 nM
[6]
  GI50: 447 nM
  TGI: 888 nM
[7]
  GI50: 1970 nM
  TGI: > 28000 nM
[8]
  GI50: 23 nM
  TGI: 63 nM
[9]
  GI50: 1260 nM
  TGI: 2890 nM
[10]
  GI50: 1440 nM
  TGI: 3650 nM
[11]
  GI50: 109 nM
  TGI: 551 nM
[12]
  GI50: 298 nM
  TGI: 1110 nM
[13]
  GI50: 3870 nM
  TGI: 14500 nM
[14]
  GI50: 2500 nM
  TGI: 9870 nM
[15]
  GI50: 1750 nM
  TGI: 4950 nM
[16]
  GI50: 22.3 nM
  TGI: 83.9 nM
[17]
  GI50: 2740 nM
  TGI: 11100 nM
[18]
  GI50: 1900 nM
  TGI: 4610 nM
[19]
  GI50: 234 nM
  TGI: 2170 nM
[20]
  GI50: 2030 nM
  TGI: 4890 nM
[21]
  GI50: < 10 nM
  TGI: < 16.9 nM
[22]
  GI50: 4390 nM
  TGI: 16000 nM
[23]
  GI50: 1030 nM
  TGI: 4390 nM
[24]
  GI50: 1360 nM
  TGI: 7930 nM
[25]
  GI50: 2330 nM
  TGI: 6140 nM
[26]
  GI50: 1490 nM
  TGI: 3340 nM
[27]
  GI50: 2350 nM
  TGI: 6920 nM
[28]
  GI50: 80.4 nM
  TGI: 216 nM
[29]
  GI50: 1040 nM
  TGI: 2650 nM
[30]
  GI50: 845 nM
  TGI: 4300 nM
[31]
  GI50: 997 nM
  TGI: 4440 nM
[32]
  GI50: 1720 nM
  TGI: 3590 nM
[33]
  GI50: 1630 nM
  TGI: 10500 nM
[34]
  GI50: 157 nM
  TGI: 438 nM
[35]
  GI50: 1750 nM
  TGI: 3380 nM
[36]
  GI50: 2230 nM
  TGI: 12300 nM
[37]
  GI50: 85.8 nM
  TGI: 277 nM
[38]
  GI50: 2300 nM
  TGI: 5930 nM
[39]
  GI50: 1480 nM
  TGI: 5980 nM
[40]
  GI50: 74 nM
  TGI: 723 nM
[41]
  GI50: 1230 nM
  TGI: 2570 nM
[42]
  GI50: 820 nM
  TGI: 3400 nM
[43]
  GI50: 641 nM
  TGI: 1990 nM
[44]
  GI50: 752 nM
  TGI: 2210 nM
[45]
  GI50: 334 nM
  TGI: 843 nM
[46]
  GI50: 40.5 nM
  TGI: 386 nM
[47]
  GI50: 1630 nM
  TGI: 3590 nM
[48]
  GI50: 54.9 nM
  TGI: 375 nM
[49]
  GI50: 262 nM
  TGI: 2510 nM
[50]
  GI50: < 10 nM
  TGI: < 10 nM
[51]
  GI50: 89.9 nM
  TGI: 226 nM
[52]
  GI50: 268 nM
  TGI: 857 nM
[53]
  GI50: 1470 nM
  TGI: 2980 nM
[54]
  GI50: 28.3 nM
  TGI: 108 nM
[55]
  GI50: 1940 nM
  TGI: 5110 nM
[56]
  GI50: 2230 nM
  TGI: 13300 nM
[57]
  GI50: 2320 nM
  TGI: 7660 nM
